Data: patent publication US9580437B2, “Triazolopyrimidine compounds and uses thereof” (Novartis AG, priority 2014, dated 2017)

Legend:
EED (1-441)-His protein = EED (1-441)-His protein (Homo sapiens (Human), UniProt O75530); test: EED-H3K27Me3 peptide competition binding assay by AlphaScreen; details: read-out: (a) IC50 EED Alphascreen binding Qualified
Text: EED-H3K27Me3 peptide competition binding assay by AlphaScreen (α-screen)

[1] = molecular target: wild type PRC2 (wtPRC2) complex (Homo sapiens (Human), UniProt O75530); test: EED LC-MS assay; type: biochemical; details: read-out: (b) IC50 EED LC-MS Qualified
Method: A 6 μL solution of 3 μM of the peptide substrate H3K27Me0 (histone H3[21-44]-biotin) in reaction buffer was added to initiate each reaction. […] ELISA (H3K27 Methylation) Assay

Chain of EED (1-441)-His protein (O75530 whole entry): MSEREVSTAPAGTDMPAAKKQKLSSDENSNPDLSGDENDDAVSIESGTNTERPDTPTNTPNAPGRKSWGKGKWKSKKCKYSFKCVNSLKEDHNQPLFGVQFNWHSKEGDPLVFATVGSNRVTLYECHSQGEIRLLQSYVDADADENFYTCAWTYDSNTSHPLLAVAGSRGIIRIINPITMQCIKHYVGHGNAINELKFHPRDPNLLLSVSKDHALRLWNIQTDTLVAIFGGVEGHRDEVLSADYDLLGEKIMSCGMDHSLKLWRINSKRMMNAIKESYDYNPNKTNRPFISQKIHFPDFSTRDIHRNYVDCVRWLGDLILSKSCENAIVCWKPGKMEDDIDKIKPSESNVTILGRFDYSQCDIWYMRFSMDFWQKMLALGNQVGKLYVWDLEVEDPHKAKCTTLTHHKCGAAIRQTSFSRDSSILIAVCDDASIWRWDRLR
Chain of wild type PRC2 (wtPRC2) complex (O75530 whole entry): as above
Chain of wild type PRC2 (wtPRC2) complex (Q15910 whole entry partner): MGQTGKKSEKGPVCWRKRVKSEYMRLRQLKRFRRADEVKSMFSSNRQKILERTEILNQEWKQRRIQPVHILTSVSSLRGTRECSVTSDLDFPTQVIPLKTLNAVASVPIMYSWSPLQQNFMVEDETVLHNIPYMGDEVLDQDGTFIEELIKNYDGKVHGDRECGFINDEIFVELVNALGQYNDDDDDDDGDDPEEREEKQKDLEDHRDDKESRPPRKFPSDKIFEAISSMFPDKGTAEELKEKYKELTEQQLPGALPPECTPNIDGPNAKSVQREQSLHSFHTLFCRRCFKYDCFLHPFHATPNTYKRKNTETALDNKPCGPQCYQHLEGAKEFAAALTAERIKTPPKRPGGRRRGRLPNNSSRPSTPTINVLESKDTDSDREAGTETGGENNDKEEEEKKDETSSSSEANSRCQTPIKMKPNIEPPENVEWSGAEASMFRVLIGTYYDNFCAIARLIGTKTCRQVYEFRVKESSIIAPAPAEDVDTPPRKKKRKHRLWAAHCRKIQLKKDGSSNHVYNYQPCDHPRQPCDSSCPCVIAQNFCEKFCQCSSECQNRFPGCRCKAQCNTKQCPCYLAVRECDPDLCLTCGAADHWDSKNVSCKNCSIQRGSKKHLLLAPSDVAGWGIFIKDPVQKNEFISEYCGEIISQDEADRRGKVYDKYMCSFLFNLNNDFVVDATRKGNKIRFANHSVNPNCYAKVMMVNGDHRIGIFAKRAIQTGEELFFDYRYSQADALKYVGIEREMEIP
Chain of wild type PRC2 (wtPRC2) complex (Q15022 whole entry partner): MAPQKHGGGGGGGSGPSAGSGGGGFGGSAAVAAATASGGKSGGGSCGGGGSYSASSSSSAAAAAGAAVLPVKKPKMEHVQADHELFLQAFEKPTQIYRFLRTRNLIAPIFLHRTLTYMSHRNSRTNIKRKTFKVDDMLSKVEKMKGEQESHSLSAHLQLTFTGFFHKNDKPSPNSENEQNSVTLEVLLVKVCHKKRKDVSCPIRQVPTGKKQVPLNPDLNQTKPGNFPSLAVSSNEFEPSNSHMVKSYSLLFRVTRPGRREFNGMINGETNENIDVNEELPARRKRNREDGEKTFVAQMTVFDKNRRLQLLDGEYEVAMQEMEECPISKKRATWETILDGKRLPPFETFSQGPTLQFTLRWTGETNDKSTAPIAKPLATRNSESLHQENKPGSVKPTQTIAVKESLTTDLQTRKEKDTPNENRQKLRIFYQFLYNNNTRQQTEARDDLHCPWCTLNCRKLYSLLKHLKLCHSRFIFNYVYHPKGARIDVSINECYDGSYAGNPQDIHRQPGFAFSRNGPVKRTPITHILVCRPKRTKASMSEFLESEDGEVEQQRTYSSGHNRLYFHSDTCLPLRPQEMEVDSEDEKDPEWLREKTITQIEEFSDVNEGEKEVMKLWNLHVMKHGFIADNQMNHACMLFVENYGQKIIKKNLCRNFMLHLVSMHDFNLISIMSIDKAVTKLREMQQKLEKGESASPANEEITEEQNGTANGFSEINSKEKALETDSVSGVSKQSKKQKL

SMILES	IC50 (EED (1-441)-His protein)	IC50 [1]
COc1cc(C)c(-c2cnc(NCc3c(F)ccc4c3CCO4)n3cnnc23)cn1 [Example 5, N-((5-fluoro-2,3-dihydrobenzofuran-4-yl)methyl)-8-(6-methoxy-4-methylpyridin-3-yl)-[1,2,4]triazolo[4,3-c]pyrimidin-5-amine]	0.0048 µM	0.0097 µM
c1ccc(-c2cnc(NCc3cccc4c3CCO4)n3cnnc23)cc1 [Example 13, N-((2,3-dihydrobenzofuran-4-yl)methyl)-8-phenyl-[1,2,4]triazolo[4,3-c]pyrimidin-5-amine]	0.0536 µM	0.0477 µM
CS(=O)(=O)c1ccc(-c2cnc(NCc3c(F)ccc4c3CCO4)n3cnnc23)cn1 [Example 56, N-((5-fluoro-2,3-dihydrobenzofuran-4-yl)methyl)-8-(6-(methylsulfonyl)pyridin-3-yl)-[1,2,4]triazolo[4,3-c]pyrimidin-5-amine]	0.0196 µM	0.0309 µM
CS(=O)(=O)Nc1ccc(-c2cnc(NCc3c(F)ccc4c3CCO4)n3cnnc23)cc1F [Example 39, N-(2-fluoro-4-(5-(((5-fluoro-2,3-dihydrobenzofuran-4-yl)methyl)amino)-[1,2,4]triazolo[4,3-c]pyrimidin-8-yl)phenyl)methanesulfonamide]	0.0178 µM	0.0175 µM
CS(=O)(=O)Nc1ccc(-c2cnc(NCc3cccc4c3CCO4)n3cnnc23)cc1F [Example 33, N-(4-(5-(((2,3-dihydrobenzofuran-4-yl)methyl)amino)-[1,2,4]triazolo[4,3-c]pyrimidin-8-yl)-2-fluorophenyl)methanesulfonamide]	0.0285 µM	0.0175 µM

Other lines, results leading:

IC50 (EED (1-441)-His protein)	IC50 [1]	SMILES
0.0275 µM	0.0569 µM	Nc1ccncc1-c1cnc(NCc2cccc3c2CCO3)n2cnnc12 [Example 76, 8-(4-aminopyridin-3-yl)-N-((2,3-dihydrobenzofuran-4-yl)methyl)-[1,2,4]triazolo[4,3-c]pyrimidin-5-amine]
0.004 µM	0.0106 µM	Cc1cc(C(=O)N(C)C)ncc1-c1cnc(NCc2c(F)ccc3c2CCO3)n2cnnc12 [Example 131, 5-(5-(((5-fluoro-2,3-dihydrobenzofuran-4-yl)methyl)amino)-[1,2,4]triazolo[4,3-c]pyrimidin-8-yl)-N,N,4-trimethylpicolinamide]
0.0026 µM	0.0088 µM	Cc1cc(S(C)(=O)=O)ncc1-c1cnc(NCc2c(F)ccc3c2CCO3)n2cnnc12 [Example 127, N-((5-fluoro-2,3-dihydrobenzofuran-4-yl)methyl)-8-(4-methyl-6-(methylsulfonyl)pyridin-3-yl)-[1,2,4]triazolo[4,3-c]pyrimidin-5-amine]
0.0223 µM	0.0463 µM	Fc1ccc(-c2cnc(NCc3c(F)ccc4c3CCO4)n3cnnc23)c(Cl)c1 [Example 157, 8-(2-chloro-4-fluorophenyl)-N-((5-fluoro-2,3-dihydrobenzofuran-4-yl)methyl)-[1,2,4]triazolo[4,3-c]pyrimidin-5-amine]
0.0399 µM	0.0653 µM	Fc1ccc2c(c1CNc1ncc(F)c3nncn13)CCO2 [Example 235, 8-fluoro-N-((5-fluoro-2,3-dihydrobenzofuran-4-yl)methyl)-[1,2,4]triazolo[4,3-c]pyrimidin-5-amine]
0.0062 µM	0.0131 µM	Cc1cncc(-c2cnc(NCc3c(F)ccc4c3CCO4)n3cnnc23)c1 [Example 232, N-((5-fluoro-2,3-dihydrobenzofuran-4-yl)methyl)-8-(5-methylpyridin-3-yl)-[1,2,4]triazolo[4,3-c]pyrimidin-5-amine]
0.022 µM	0.0296 µM	COCc1cc(-c2cnc(NCc3cccc4c3CCO4)n3cnnc23)cnc1C [Example 137, N-((2,3-dihydrobenzofuran-4-yl)methyl)-8-(5-(methoxymethyl)-6-methylpyridin-3-yl)-[1,2,4]triazolo[4,3-c]pyrimidin-5-amine]
